Data reported in patent publication US20190166840A1, “SUBSTITUTED PYRAZOLINYL DERIVATIVES, PROCESSES FOR THEIR PREPARATION AND THEIR USE AS HERBICIDES AND/OR PLANT GROWTH REGULATORS” (BAYER CROPSCIENCE AKTIENGESELLSCHAFT, priority 2016, published 2019).
One block for each compound: values may come before it.

Experiments:
Veronica persica = assay: Pre-emergence herbicidal action, VERPE; assay type: in vivo; conditions: application rate 1280 g/ha, scored visually after about 3 weeks
Description: Pre-Emergence Herbicidal Action Seeds of mono- and dicotyledonous weed plants or crop plants were placed in sandy loam in wood fibre pots and covered with soil. The formulated compounds of the general formula (I) according to the invention were then applied to the surface of the covering soil in the form of an aqueous suspension or emulsion at an application rate of 600 l of water/ha (converted) with addition of 0.2% wetting agent. After the treatment, the pots were placed in a greenhouse and kept under good growth conditions for the test plants. After about 3 weeks, the effect was scored visually in percent in comparison to untreated controls. For example, 100% activity=the plants have died, 50% herbicidal activity or damage=plants reduced to 50% or plant material reduced by 50%, 0% activity=like control plants. Here, in the biological tests, the compounds of the general formula (I) according to the invention were in each case employed in a formulation, with the numerations of Tables I.1 to I.77 also applying here. Here, the herbicidal action of the compounds of the general formula (I) according to the invention was examined for the following harmful plants: VERPE=Veronica persica The respective herbicidal action was in each case determined at the same point in time after application of the formulation in question, i.e. damage of the harmful plant in question in %. Pre-emergence herbicidal action of the compounds of the general formula (I) according to the invention: […]

photosystem II (PS II) = target: T1, photosystem II (PS II) (Spinacia oleracea, UniProt P69560); assay: Activity determination of photosystem II (PS II) in thylakoid membranes, DCPIP reduction; assay type: biochemical; conditions: spinach thylakoid membranes, DCPIP 120 μM, 10 min at 22° C. with illumination; read-out: pI50 (converted)
T1 construct: the chloroplasts were osmotically ruptured and the thylakoid membranes were then obtained by centrifugation; from tissue; host or cells: spinach leaves (thylakoid membrane preparation)
Protocol: Measurement of PS II Activity in Thylakoid Membranes
1. Preparation of the Thylakoid Membranes
Cooled fresh spinach leaves were comminuted and homogenized in 50 mM phosphate buffer, pH 6.8, 10 mM KCl, 0.34 M sucrose (sucrose buffer) (mixer, 1 g of plant material/ml). The homogenate was subsequently filtered through 4 layers of Miracloth and the chloroplasts were obtained by centrifugation: • 10 minutes (min) of centrifugation at 4400×g (4° C.). • The sediment was suspended in 25 ml of sucrose buffer and centrifuged for another 10 min at 4400×g (4° C.). • The sediment was then suspended in 40 ml of 50 mM phosphate buffer, pH 6.8, 10 mM KCl, without sucrose. • In this step, the chloroplasts were osmotically ruptured and the thylakoid membranes were then obtained by centrifugation (10 min, 4400×g, 4° C.). The membrane sediment was finally suspended in about 20 ml of 50 mM phosphate buffer, pH 6.8, 10 mM KCl. • After protein determination and activity determination, the membrane suspension was aliquoted and frozen in liquid nitrogen. The aliquots were stored at −80° C. Under these conditions, the photosystem II preparation is storage-stable for at least three months.
2. Activity Determination of the Photosystem II (PS II)
The electron transfer from PS II to an artificial electronic captor, 2,6-dichlorophenol-indophenol (DCPIP), is measured under the action of light. The concentration of the blue oxidized form of DCPIP can be determined spectraphotometrically at the wavelength l=595 nm. The enzyme-catalyzed reduction of DCPIP results in a colourless leuco form and thus to a decrease of absorption at 595 nm in the reaction batch, which is measured as a function of time.
The activity determination was carried out in microtiter plates (96 wells) in a reaction volume of 200 μl. 155 μl of dilute membrane suspension in 50 mM phosphate buffer, pH 6.8, 10 mM KCl were initially charged. Depending on the activity of the PS II preparation, the dilution was adjusted such that measurement of the decrease in absorption (λ=595 nm) was linear for at least 10 min.
Typical dilution series of the test compounds comprised 10 concentration steps in the range between 10^−9and 10^−5 M.
On each microtiter plate, a known PS II inhibitor, e.g. metribuzin, was used as standard for assessing the quality of the PS II test.
The reaction was initiated by addition of 40 μl DCPIP solution (600 μM in distilled water); the final concentration of DCPIP was 120 μM.
Absorption was measured over a period of 10 min at 22° C. and with illumination. For calculating the active compound concentration at which 50% of the enzyme activity is inhibited (IC50), the relative enzymatic activity (in %) was plotted as a function of the logarithm of the active compound concentration.

Compound: CCC(=O)OC1C(C)=C(C)C(=O)N1C1=NN(c2ccccc2)CC1 (stereo not drawn) [I.23-621]
- Pre-emergence herbicidal action VERPE, damage of the harmful plant (Veronica persica): 0%

Compound: CCC(=O)OC1C(C)=C(C)C(=O)N1C1=NN(c2ccccc2)C(C(F)(F)F)C1 (stereo not drawn) [I.23-1413]
- Pre-emergence herbicidal action VERPE, damage of the harmful plant (Veronica persica): 60%

Compound: CCC(=O)OC1C(C)=C(Cl)C(=O)N1C1=NN(C)C(c2ccccc2)C1 (stereo not drawn) [I.24-1126]
- Pre-emergence herbicidal action VERPE, damage of the harmful plant (Veronica persica): 0%

Compound: CC1=C(C)C(O)N(C2=NN(c3ccccn3)C(C)(C)C2)C1=O (stereo not drawn) [I.2-132]
- Pre-emergence herbicidal action VERPE, damage of the harmful plant (Veronica persica): 30%

Compound: CCC(=O)OC1C(C)=C(C)C(=O)N1C1=NN(c2ccccn2)C(C)(C)C1 (stereo not drawn) [I.23-132]
- Pre-emergence herbicidal action VERPE, damage of the harmful plant (Veronica persica): 60%

- IC50 (photosystem II (PS II)): 5.01 µM
Compound: CC1=C(C)C(O)N(C2=NN(c3ccccc3)C(C(F)(F)F)C2)C1=O (stereo not drawn) [I.2-1413]
